ChEMBL document CHEMBL1201862, “PubChem BioAssay data set” (2004)
Activity calls are given as the source filed them.

Key:
[1] = AlphaScreen signal interference compounds, dose response, artefact control for ARNT-TACC3 interaction inhibitor project, biochemical, luminescence, cherry-pick (AID 651705); type: functional;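 also: AlphaScreen bead proximity signal that flags compounds interfering with the detection technology; potency reflects signal decrease which marks the compound as an assay artifact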
[2] = biological target: Tyrosine-protein phosphatase non-receptor type 11 (Homo sapiens, UniProt Q06124); assay: SHP2 phosphatase inhibition, dose response, selectivity assay for STEP inhibitor project, biochemical (AID 602367); type: functional; conditions: read-out: IC50_Mean
Tyrosine-protein phosphatase non-receptor type 11, sequence (Q06124 whole entry): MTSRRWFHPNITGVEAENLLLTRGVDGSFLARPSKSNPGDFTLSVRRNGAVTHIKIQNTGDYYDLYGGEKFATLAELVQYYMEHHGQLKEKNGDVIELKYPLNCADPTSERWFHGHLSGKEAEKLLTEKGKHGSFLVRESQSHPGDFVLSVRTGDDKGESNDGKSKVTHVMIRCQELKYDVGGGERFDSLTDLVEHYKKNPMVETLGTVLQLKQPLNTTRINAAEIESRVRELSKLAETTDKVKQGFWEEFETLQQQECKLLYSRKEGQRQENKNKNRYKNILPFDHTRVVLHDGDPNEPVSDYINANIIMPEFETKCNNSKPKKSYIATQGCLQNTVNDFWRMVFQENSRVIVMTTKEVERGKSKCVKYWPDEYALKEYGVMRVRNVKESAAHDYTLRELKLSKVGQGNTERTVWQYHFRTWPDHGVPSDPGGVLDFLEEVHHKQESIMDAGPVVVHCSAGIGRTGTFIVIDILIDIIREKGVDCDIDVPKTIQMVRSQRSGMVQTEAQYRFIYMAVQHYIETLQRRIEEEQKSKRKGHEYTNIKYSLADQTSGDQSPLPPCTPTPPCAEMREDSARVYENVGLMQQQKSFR

[3] = biological target: Tyrosine-protein phosphatase non-receptor type 5 (Homo sapiens, UniProt P54829); assay: STEP phosphatase inhibitors, confirmation, biochemical, fluorescence intensity, uHTS hits (AID 602372); type: functional; conditions: read-out: IC50_Mean
Tyrosine-protein phosphatase non-receptor type 5, sequence (P54829 whole entry): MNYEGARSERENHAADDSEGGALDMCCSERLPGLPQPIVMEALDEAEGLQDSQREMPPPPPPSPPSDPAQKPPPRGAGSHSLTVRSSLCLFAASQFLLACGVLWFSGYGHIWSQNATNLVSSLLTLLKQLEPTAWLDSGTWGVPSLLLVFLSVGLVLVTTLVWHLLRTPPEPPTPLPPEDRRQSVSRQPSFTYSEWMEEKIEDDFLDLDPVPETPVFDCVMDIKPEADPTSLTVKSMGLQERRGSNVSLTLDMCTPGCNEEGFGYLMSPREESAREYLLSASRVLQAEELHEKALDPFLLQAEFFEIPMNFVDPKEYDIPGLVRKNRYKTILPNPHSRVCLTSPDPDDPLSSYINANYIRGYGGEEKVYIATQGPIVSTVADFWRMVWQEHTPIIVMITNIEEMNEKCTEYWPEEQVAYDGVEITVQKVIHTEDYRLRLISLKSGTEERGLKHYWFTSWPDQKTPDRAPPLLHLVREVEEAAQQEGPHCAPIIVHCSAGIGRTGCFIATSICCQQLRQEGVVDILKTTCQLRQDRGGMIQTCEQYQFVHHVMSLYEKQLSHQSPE

[4] = biological target: Dual specificity protein phosphatase 3 (Homo sapiens, UniProt P51452); assay: VHR phosphatase inhibition, dose response, selectivity assay for STEP inhibitor project, biochemical (AID 602374); type: functional; conditions: read-out: IC50_Mean
Dual specificity protein phosphatase 3, sequence (P51452 whole entry): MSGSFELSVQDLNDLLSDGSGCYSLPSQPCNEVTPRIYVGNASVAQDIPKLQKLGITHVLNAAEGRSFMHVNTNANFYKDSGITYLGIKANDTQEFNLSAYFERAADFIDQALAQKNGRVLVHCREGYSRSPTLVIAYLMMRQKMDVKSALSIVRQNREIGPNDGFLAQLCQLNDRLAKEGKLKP

[5] = biological target: Beta-2 adrenergic receptor (Homo sapiens, UniProt P07550); assay: beta2AR agonists driving receptor internalization, dose response, cell-based, FAP fluorogen, flow cytometry, cherry pick 1 (AID 588763); type: functional
Beta-2 adrenergic receptor, sequence (P07550 whole entry): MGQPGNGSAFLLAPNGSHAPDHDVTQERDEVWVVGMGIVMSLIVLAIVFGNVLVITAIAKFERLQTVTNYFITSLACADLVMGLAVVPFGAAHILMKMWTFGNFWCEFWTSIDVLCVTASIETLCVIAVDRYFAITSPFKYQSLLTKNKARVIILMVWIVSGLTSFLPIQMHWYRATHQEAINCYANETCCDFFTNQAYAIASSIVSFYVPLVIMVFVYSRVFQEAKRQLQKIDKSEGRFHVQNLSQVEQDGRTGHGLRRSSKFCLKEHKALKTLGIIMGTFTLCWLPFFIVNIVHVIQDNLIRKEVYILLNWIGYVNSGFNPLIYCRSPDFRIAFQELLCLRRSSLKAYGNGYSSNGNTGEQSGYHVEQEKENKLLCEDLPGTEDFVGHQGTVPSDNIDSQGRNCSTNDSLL

[6] = tested on: Vero; assay: cells; type: functional; conditions: Chlorocebus sabaeus
[7] = biological target: T1, Protein skinhead-1 (Caenorhabditis elegans, UniProt P34707); type: functional
T1 sequence (P34707 whole entry): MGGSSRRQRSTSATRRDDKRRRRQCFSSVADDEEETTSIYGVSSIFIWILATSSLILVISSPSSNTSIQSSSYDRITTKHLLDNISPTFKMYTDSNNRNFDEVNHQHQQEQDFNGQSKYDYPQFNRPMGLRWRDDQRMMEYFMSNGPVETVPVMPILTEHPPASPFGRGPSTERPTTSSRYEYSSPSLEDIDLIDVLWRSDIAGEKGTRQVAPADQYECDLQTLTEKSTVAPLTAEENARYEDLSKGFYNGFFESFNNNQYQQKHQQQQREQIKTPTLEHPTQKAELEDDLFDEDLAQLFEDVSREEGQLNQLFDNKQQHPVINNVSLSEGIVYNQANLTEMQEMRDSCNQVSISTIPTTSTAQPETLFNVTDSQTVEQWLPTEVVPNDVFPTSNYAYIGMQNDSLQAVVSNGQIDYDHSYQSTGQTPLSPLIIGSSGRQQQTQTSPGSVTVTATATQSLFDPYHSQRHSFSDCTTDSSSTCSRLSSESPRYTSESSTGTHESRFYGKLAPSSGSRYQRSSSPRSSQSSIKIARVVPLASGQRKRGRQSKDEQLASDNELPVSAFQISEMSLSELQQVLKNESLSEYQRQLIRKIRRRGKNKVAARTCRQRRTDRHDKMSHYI

[8] = MDA-MB-231 cell growth inhibition, dose response, cytotoxicity control for RAD54 inhibitor project, CellTiter-Glo luminescence, cherry-pick (AID 651692); type: functional, cell-based
[9] = biological target: T2, DNA repair and recombination protein RAD54-like (Homo sapiens, UniProt Q92698); assay: inhibitors of human RAD54 branch migration, confirmation, biochemical, fluorescence, cherry-picked samples, dose series (AID 651657); type: functional
T2 sequence (Q92698 whole entry): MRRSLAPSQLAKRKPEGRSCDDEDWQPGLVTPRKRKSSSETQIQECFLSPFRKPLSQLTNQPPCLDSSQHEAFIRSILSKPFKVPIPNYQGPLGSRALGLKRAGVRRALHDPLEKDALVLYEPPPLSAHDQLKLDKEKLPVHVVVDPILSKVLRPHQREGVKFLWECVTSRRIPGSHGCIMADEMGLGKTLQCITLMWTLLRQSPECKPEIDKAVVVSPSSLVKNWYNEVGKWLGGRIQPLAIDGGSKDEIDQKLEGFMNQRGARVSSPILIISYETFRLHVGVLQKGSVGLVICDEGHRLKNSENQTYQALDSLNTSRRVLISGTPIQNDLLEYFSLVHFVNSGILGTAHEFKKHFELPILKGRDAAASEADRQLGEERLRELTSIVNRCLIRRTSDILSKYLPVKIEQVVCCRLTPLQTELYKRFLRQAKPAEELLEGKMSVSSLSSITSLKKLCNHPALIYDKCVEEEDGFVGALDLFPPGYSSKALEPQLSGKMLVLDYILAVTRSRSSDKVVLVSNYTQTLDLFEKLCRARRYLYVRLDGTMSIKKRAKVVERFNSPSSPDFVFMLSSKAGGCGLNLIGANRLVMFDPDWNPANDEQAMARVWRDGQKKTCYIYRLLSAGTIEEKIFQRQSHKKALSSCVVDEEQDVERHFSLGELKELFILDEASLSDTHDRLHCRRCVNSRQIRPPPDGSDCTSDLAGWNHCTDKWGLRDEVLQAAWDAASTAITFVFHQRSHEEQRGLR

[10] = biological target: T3, DNA repair protein RAD52 homolog (Homo sapiens, UniProt P43351); type: functional, biochemical
T3 sequence (P43351 whole entry): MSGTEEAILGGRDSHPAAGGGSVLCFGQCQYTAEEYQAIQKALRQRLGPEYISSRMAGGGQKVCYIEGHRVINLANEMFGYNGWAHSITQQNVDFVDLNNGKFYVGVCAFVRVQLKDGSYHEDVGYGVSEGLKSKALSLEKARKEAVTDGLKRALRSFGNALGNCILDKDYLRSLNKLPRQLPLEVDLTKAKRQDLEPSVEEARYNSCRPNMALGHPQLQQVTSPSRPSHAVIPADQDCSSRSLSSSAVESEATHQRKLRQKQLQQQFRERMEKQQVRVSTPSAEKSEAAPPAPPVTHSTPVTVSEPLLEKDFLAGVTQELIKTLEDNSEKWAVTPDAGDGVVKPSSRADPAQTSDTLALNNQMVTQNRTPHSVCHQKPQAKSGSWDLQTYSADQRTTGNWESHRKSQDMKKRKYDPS

[11] = biological target: Adenosylmethionine-8-amino-7-oxononanoate aminotransferase (Mycobacterium tuberculosis, UniProt P9WQ81); assay: Mycobacterium tuberculosis BioA enzyme inhibitor Measured in Biochemical System Using Plate Reader - 2163-02_Inhibitor_Dose_CherryPick_Activity.; type: functional, Mycobacterium tuberculosis UT205
Adenosylmethionine-8-amino-7-oxononanoate aminotransferase, sequence (P9WQ81 whole entry): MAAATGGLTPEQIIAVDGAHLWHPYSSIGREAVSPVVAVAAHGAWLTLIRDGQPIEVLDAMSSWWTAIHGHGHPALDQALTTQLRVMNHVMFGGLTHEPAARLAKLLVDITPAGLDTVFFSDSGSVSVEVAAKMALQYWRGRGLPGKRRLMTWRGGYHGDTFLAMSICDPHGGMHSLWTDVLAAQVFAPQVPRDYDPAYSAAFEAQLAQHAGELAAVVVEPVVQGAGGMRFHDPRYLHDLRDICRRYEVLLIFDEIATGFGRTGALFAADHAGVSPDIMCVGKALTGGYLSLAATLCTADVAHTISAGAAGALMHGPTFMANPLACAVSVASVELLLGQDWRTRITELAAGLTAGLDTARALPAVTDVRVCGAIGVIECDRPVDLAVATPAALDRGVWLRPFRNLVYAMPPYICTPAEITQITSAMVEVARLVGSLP

[12] = cells; type: functional, cell-based
[13] = biological target: Luciferin 4-monooxygenase (Photinus pyralis, UniProt P08659); assay: Counter Screen for Luciferase-based Assay Positives. [Related pubchem assays: 620, 618, 411 ]
Luciferin 4-monooxygenase, sequence (P08659 whole entry): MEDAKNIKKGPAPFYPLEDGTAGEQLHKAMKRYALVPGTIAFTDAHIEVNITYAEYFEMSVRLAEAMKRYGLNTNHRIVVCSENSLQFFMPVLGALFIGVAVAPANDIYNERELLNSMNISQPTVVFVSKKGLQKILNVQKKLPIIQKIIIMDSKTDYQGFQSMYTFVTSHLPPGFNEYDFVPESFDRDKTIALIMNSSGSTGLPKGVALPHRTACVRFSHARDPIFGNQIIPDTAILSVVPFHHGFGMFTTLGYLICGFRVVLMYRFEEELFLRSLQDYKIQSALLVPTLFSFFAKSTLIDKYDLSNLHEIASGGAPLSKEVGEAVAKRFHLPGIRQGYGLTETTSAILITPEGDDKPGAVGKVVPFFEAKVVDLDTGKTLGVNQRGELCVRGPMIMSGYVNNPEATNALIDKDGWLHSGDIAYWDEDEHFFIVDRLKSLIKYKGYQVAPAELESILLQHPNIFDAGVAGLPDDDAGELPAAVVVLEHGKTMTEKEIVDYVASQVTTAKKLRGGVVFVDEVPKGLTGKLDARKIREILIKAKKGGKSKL

[14] = biological target: ATP-dependent molecular chaperone HSP82 (Candida albicans (strain WO-1) (Yeast), UniProt C4YTQ8); assay: loss of DOC-induced GRE-beta-galactosidase reporter signal, dose response, Hsp90 inhibitor project, S. cerevisiae, luminescence (AID 2400); type: functional, cell-based;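 also: beta-galactosidase luminescence from glucocorticoid response element reporter as proxy for Hsp90 function; inhibitor potency where signal loss means Hsp90 inhibition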
ATP-dependent molecular chaperone HSP82, sequence (C4YTQ8 whole entry): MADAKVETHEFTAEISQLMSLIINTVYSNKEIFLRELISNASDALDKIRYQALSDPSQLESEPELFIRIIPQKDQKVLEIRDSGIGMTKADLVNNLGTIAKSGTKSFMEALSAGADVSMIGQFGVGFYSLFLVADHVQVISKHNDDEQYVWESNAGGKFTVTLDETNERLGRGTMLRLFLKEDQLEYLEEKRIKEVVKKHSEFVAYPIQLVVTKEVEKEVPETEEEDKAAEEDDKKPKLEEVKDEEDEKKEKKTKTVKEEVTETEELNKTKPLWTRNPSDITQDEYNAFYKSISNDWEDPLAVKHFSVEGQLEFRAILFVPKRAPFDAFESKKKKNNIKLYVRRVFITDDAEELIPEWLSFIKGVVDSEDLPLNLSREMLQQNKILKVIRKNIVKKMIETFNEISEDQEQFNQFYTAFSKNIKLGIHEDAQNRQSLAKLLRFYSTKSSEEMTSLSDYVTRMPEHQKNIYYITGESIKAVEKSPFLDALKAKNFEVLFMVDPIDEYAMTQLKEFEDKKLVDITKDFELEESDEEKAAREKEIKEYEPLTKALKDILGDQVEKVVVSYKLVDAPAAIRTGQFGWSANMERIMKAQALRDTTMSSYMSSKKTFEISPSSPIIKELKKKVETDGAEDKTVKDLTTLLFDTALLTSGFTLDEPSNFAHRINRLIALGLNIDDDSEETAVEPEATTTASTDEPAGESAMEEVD

[15] = tested on: BJ; assay: cells; type: functional, cell-based; conditions: Homo sapiens
[16] = tested on: BJ; assay: cytotoxicity toward BJ-TERT fibroblasts, dose response, cell-based, RAS-independent, luminescence (AID 1933); type: functional; conditions: Homo sapiens
[17] = biological target: Heat shock protein HSP 90-alpha (Homo sapiens, UniProt P07900); type: functional, organism-based
[18] = cells; type: functional, cell-based; remark: listed apart in the source
[19] = growth suppression of PTEN-null colon cells, dose response, cell-based, HCT116 PTEN knockout (AID 1047); type: functional;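 also: HCT116 colon tumor cells with PTEN knocked out; cells exposed to compound for 60 hours before readout; potency for loss of cell viability measured by luminescence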
[20] = biological target: Nonstructural protein 1 (Influenza A virus, UniProt Q194T2); type: functional, Influenza A virus (A/California/07/2009(H1N1))
Nonstructural protein 1, sequence (Q194T2 whole entry): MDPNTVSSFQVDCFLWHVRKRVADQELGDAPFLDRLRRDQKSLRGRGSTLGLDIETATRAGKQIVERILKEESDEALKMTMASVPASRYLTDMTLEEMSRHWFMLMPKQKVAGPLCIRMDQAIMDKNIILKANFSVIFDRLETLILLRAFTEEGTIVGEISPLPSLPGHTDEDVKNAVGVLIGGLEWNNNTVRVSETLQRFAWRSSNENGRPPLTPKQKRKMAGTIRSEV

[21] = growth suppression of beta-catenin-knockout colon cells, dose response, cell-based, HCT116, human colon tumor (AID 1045); type: functional;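 also: HCT116 colon tumor cells with beta catenin knocked out; cells exposed to compound for 60 hours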
[22] = NIH-3T3 fibroblast cytotoxicity, dose response, cytotoxicity control, cell-based, fluorescence, Alamar Blue, secondary assay (AID 2327); type: functional;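 also: NIH-3T3 mouse fibroblasts cultured with fluconazole at 8 µg/mL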
[23] = tested on: BJ; assay: cytotoxicity toward BJ-TERT-LT-ST fibroblasts, dose response, cell-based, RAS-independent, luminescence (AID 1935); type: functional; conditions: Homo sapiens;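 also: BJ fibroblasts immortalized with TERT plus LT and ST oncogenes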
[24] = biological target: T4, Serine/threonine-protein phosphatase (Candida dubliniensis (strain CD36 / CBS 7987 / NCPF 3949 / NRRLY-17841) (Yeast), UniProt B9W6M3); assay: calcineurin pathway inhibitors in yeast reporter, dose response, S. cerevisiae, CDRE-lacZ, luminescence, secondary (AID 2388); type: functional, cell-based;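 also: yeast reporter cells carrying a calcineurin-responsive lacZ construct stimulated with calcium chloride; luminescent beta-galactosidase reporter signal in whole cells rather than isolated phosphatase activity; potency for inhibition where a drop in reporter signal means calcineurin blockade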
T4 sequence (B9W6M3 whole entry): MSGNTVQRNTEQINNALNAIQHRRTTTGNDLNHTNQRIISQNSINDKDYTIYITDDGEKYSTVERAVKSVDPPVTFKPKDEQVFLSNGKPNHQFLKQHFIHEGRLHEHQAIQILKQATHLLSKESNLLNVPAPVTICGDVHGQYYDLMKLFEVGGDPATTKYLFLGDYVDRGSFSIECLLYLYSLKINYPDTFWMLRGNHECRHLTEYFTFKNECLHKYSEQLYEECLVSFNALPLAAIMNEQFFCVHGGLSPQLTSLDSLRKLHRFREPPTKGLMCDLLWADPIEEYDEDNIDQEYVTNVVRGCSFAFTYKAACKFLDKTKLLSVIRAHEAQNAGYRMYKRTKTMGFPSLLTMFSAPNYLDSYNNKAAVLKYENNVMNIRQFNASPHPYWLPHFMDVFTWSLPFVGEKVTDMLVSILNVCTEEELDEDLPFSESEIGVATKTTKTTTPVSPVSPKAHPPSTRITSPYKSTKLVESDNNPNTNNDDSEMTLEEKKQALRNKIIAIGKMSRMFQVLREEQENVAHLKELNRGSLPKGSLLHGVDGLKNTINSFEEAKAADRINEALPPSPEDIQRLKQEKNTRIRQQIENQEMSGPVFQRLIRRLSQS

[25] = biological target: T5, Streptokinase A (Streptococcus pyogenes serotype M1, UniProt P10520); assay: S. pyogenes streptokinase expression inhibitors, potency, dose response, plasminogen activation absorbance, OD405 (AID 1914); type: functional, Streptococcus pyogenes M1 GAS;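 also: secreted streptokinase activity via plasminogen activation per viability signal from cell pellet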
T5 sequence (P10520 whole entry): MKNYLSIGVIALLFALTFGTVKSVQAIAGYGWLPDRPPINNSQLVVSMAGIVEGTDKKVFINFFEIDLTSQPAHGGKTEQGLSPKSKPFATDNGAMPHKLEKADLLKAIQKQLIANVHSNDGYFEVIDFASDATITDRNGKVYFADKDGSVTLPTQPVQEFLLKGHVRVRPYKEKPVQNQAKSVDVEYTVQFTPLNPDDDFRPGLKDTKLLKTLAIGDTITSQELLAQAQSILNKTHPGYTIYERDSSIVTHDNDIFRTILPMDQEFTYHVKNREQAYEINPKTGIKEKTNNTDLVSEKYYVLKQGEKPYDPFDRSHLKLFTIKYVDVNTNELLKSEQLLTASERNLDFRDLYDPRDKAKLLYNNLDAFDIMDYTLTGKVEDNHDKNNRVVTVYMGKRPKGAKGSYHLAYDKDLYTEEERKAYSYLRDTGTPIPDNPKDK

[26] = NIH-3T3 fibroblast cytotoxicity, dose response, cytotoxicity control for antifungal single agent project, cell-based, Alamar Blue, dry powder (AID 602188); type: functional
[27] = tested on: Streptococcus; assay: Group A Streptococcus viability loss, dose response, counter-screen for streptokinase expression inhibitor project, luminescence, BacTiterGlo (AID 1915); type: functional, organism-based;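 also: potency for reduction of bacterial viability or growth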
[28] = C. albicans growth with fluconazole, confirmation, fluorescence, retest (AID 2467); type: functional, cell-based
[29] = cytotoxicity toward DRD oncogenic fibroblasts, dose response, cell-based, non-viral oncogenic, luminescence (AID 1934); type: functional; conditions: Homo sapiens
[30] = tested on: Streptococcus sp. 'group A'; assay: growth inhibition of control SK(-) GAS strain, dose response, counter-screen for streptokinase expression inhibitor project, luminescence, kanamycin, BacTiterGlo, confirmation (AID 1900); type: functional, organism-based
[31] = tested on: HT-1080; assay: cytotoxicity in HT1080 fibrosarcoma cells, cell-based, fluorescence readout (AID 620); type: functional; conditions: Homo sapiens
[32] = HEp-2 cell cytotoxicity, dose response, cytotoxicity control for RSV inhibitor project, HTS (AID 2410); type: functional; conditions: human respiratory syncytial virus
[33] = biological target: Mitochondrial peptide methionine sulfoxide reductase (Bos taurus, UniProt P54149); type: functional;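 also: absorbance read-out, biochemical high-throughput dose-response screen for MsrA inhibitors, confirmatory; recombinant bovine MsrA coupled to E. coli TrxB with NADPH and selenocystamine; potency is for inhibitors of MsrA activity on DMSO substrate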
Mitochondrial peptide methionine sulfoxide reductase, sequence (P54149 whole entry): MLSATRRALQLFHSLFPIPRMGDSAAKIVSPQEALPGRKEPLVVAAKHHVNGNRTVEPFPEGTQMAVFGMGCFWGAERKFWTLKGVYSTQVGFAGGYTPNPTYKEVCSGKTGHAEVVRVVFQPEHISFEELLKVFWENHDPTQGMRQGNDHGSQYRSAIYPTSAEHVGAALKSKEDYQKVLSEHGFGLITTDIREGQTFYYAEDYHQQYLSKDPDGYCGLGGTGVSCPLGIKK

[34] = biological target: T6, Interleukin-8 (Homo sapiens, UniProt P10145); assay: Dose Response confirmation of uHTS small molecule hits for cystic fibrosis induced NFkb Inhibitors in a PAF-induced IL8 counterscreen.; type: functional; conditions: read-out: IC50_Mean
T6 sequence (P10145 whole entry): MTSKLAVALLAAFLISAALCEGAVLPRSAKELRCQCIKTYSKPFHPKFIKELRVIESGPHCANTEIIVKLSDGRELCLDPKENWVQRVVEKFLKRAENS

[35] = biological target: T6, Interleukin-8; assay: Dose Response confirmation of uHTS small molecule hits for cystic fibrosis induced NFkb Inhibitors in a TNFa-induced IL8 counterscreen.; type: functional; conditions: read-out: IC50_Mean

## O=C(CSc1cccc2cccnc12)Nc1cc(C(=O)O)cc(C(=O)O)c1
[1]
  AC50: 104 µM (active)

## O=C(NN=Cc1ccccc1O)NN=Cc1ccccc1O
[2]
  IC50: 3.93 µM (active)
[3]
  IC50: 10.1 µM (active)
[4]
  IC50: 4.05 µM (active)

## CN(C)CCNc1ncnc2c1sc1nc(N3CCCC3)c3c(c12)CC(C)(C)OC3
[5]
  EC50: 4.02 µM (active)
[6]
  CC50: 17.8 µM (active)
[7]
  IC50: > 100 µM (inactive)
[8]
  AC50: 34.7 µM (active)
[9]
  AC50: 9.5 µM (active)
[10]
  AC50: 6.55 µM (active)

## C/C=C(/C)C(=O)OC(C)(C)[C@@H]1Cc2c(ccc3ccc(=O)oc23)O1 [COLUMBIANADIN]
[11]
  AC50: 0.389 µM (active)

## Oc1c(CN2CCc3ccccc3C2)cc(Cl)c2cccnc12
[12]
  EC50: > 350 µM (not active)
[13]
  EC50: 17.7 µM (active)
[14]
  EC50: > 160 µM (inactive)
[15]
  EC50: 10.9 µM (active)
[16]
  EC50: 8.6 µM (active)
[17]
  AC50: 7.67 µM (active)
[18]
  EC50: > 350 µM (not active)
[19]
  EC50: 1.03 µM (active)
[20]
  IC50: 11.1 µM (active)
[21]
  EC50: 0.973 µM (active)
[22]
  EC50: > 160 µM (inactive)
[23]
  EC50: 8.45 µM (inconclusive)
[24]
  EC50: > 180 µM (inactive)
[25]
  EC50: > 150 µM (not active)
[26]
  AC50: < 0.1 µM (active)
[27]
  EC50: 9.33 µM (active)
[28]
  EC50: 0.712 µM (active)
[29]
  EC50: 6.01 µM (active)
[30]
  EC50: 2.95 µM (active)
[31]
  EC50: 22.2 µM (active)

## C/C(N)=C(/C#N)C(=O)CSc1nn(-c2ccc(Cl)cc2)c(=S)s1
[32]
  CC50: 15.9 µM (active)
[33]
  IC50: 155 µM (inactive)

## C=CC(=O)Nc1cccc(Oc2[nH]cnc3ncc(-c4cnc5ccccc5c4)c2-3)c1
[34]
  IC50: 2.52 µM (active)
[35]
  IC50: 3.39 µM (active)
